Test results published in the CheMixHub viscosity set.

Test: xn = mol fraction of the nth substance listed

CCCCCCCCCCCC(=O)OC + CC(C)C1CCCCC1
viscosity [mPa·s], 100 kPa
Settings | x2 = 0.1008 | x2 = 0.2004 | x2 = 0.3006 | x2 = 0.4002 | x2 = 0.5004 | x2 = 0.6003 | x2 = 0.7001 | x2 = 0.8 | x2 = 0.9001
293.15 K | 2.862 | 2.608 | 2.365 | 2.139 | 1.93 | 1.728 | 1.546 | 1.378 | 1.229
298.15 K | 2.558 | 2.342 | 2.133 | 1.937 | 1.756 | 1.579 | 1.419 | 1.271 | 1.137
303.15 K | 2.303 | 2.117 | 1.936 | 1.765 | 1.606 | 1.45 | 1.308 | 1.176 | 1.056
308.15 K | 2.088 | 1.926 | 1.768 | 1.617 | 1.476 | 1.338 | 1.211 | 1.093 | 0.984
313.15 K | 1.904 | 1.759 | 1.621 | 1.488 | 1.363 | 1.239 | 1.126 | 1.018 | 0.92
318.15 K | 1.743 | 1.616 | 1.493 | 1.375 | 1.262 | 1.152 | 1.05 | 0.952 | 0.863
323.15 K | 1.602 | 1.49 | 1.38 | 1.274 | 1.174 | 1.074 | 0.981 | 0.893 | 0.812

COC(=O)CC(C)=O + CC(C)CO
viscosity [mPa·s], 101.3 kPa
Settings | x1 = 0.1046 | x1 = 0.2052 | x1 = 0.3095 | x1 = 0.4094 | x1 = 0.5075 | x1 = 0.6057 | x1 = 0.7026 | x1 = 0.8059 | x1 = 0.902
298.15 K | 2.24 | 1.81 | 1.598 | 1.463 | 1.385 | 1.352 | 1.35 | 1.38 | 1.449
303.15 K | 1.944 | 1.591 | 1.412 | 1.303 | 1.241 | 1.221 | 1.223 | 1.251 | 1.312
308.15 K | 1.696 | 1.407 | 1.257 | 1.17 | 1.124 | 1.108 | 1.114 | 1.143 | 1.198

CCCCCC[n+]1ccn(C)c1.O=S(=O)([O-])C(F)(F)F + CC(C)O
Settings | viscosity [mPa·s]
298.15 K, 100 kPa, x2 = 0.1282 | 99.47

CCOC(C)=O + CC(C)O
viscosity [mPa·s], 101.3 kPa
Settings | x1 = 0.1003 | x1 = 0.2045 | x1 = 0.3082 | x1 = 0.4005 | x1 = 0.4994 | x1 = 0.5952 | x1 = 0.7049 | x1 = 0.7916 | x1 = 0.9011
298.15 K | 1.326 | 0.9655 | 0.767 | 0.6606 | 0.5797 | 0.5283 | 0.4812 | 0.466 | 0.4473
303.15 K | 1.177 | 0.8717 | 0.701 | 0.6122 | 0.5391 | 0.4939 | 0.4525 | 0.4389 | 0.4233
308.15 K | 1.044 | 0.7861 | 0.6407 | 0.5644 | 0.5011 | 0.4617 | 0.4257 | 0.4153 | 0.4006
313.15 K | 0.9286 | 0.7126 | 0.5876 | 0.5224 | 0.4673 | 0.4332 | 0.4012 | 0.3911 | 0.3793
318.15 K | 0.8325 | 0.6477 | 0.5427 | 0.4856 | 0.4365 | 0.4066 | 0.3798 | 0.3711 | 0.3605
323.15 K | 0.7498 | 0.5901 | 0.501 | 0.4503 | 0.4088 | 0.3831 | 0.3586 | 0.3513 | 0.343

COC(=O)CC(C)=O + CC(C)O
viscosity [mPa·s], 101.3 kPa
Settings | x1 = 0.1028 | x1 = 0.2052 | x1 = 0.3051 | x1 = 0.4085 | x1 = 0.4086 | x1 = 0.5084 | x1 = 0.6057 | x1 = 0.7079 | x1 = 0.8053 | x1 = 0.9038
298.15 K | 1.457 | 1.267 | 1.195 | 1.168 | – | 1.16 | 1.189 | 1.243 | 1.315 | 1.419
303.15 K | 1.279 | 1.124 | 1.068 | 1.051 | – | 1.049 | 1.08 | 1.127 | 1.197 | 1.287
308.15 K | 1.023 | 1.006 | 0.963 | – | 0.952 | 0.956 | 0.985 | 1.032 | 1.094 | 1.133

FC(F)(F)C(F)(F)Cl + CC(F)F
Settings | viscosity [mPa·s]
299.88 K, 101.13 kPa, x1 = 0.69 | 0.1856

OCC(O)CO + CCC(C)O
viscosity [mPa·s], 101.33 kPa
Settings | x1 = 0.103 | x1 = 0.2005 | x1 = 0.3005 | x1 = 0.4065 | x1 = 0.5004 | x1 = 0.6005 | x1 = 0.6997 | x1 = 0.7989 | x1 = 0.8998
298.15 K | 4.899 | 8.259 | 14.21 | 26.4 | 50.58 | 96.78 | 190.1 | 327.9 | 521.9
308.15 K | 3.311 | 5.321 | 8.761 | 15.79 | 27.46 | 49.39 | 90.98 | 149.4 | 231.6
318.15 K | 2.387 | 3.648 | 5.727 | 9.681 | 15.6 | 26.39 | 45.42 | 71.57 | 107.4

CCCCCCCCCCCCCCCCCCCl + CCCCC
298 K, 101.3 kPa
Settings | viscosity [mPa·s]
x2 = 0.1054 | 6.009
x2 = 0.2014 | 4.945
x2 = 0.3067 | 3.902
x2 = 0.4166 | 2.952
x2 = 0.4993 | 2.325
x2 = 0.6122 | 1.613
x2 = 0.7054 | 1.157
x2 = 0.8048 | 0.7477
x2 = 0.9029 | 0.431

CCOC(C)=O + CCCCCC
Settings | viscosity [mPa·s]
293.15 K, 101 kPa, x1 = 0.0998 | 0.3115
293.15 K, 101 kPa, x1 = 0.2074 | 0.3152
293.15 K, 101 kPa, x1 = 0.2978 | 0.3217
293.15 K, 101 kPa, x1 = 0.4046 | 0.3303
293.15 K, 101 kPa, x1 = 0.5034 | 0.3416
293.15 K, 101 kPa, x1 = 0.614 | 0.3599
293.15 K, 101 kPa, x1 = 0.6748 | 0.3683
293.15 K, 101 kPa, x1 = 0.8018 | 0.3963
293.15 K, 101 kPa, x1 = 0.9118 | 0.4248
298.15 K, 101 kPa, x1 = 0.0436 | 0.29
298.15 K, 101 kPa, x1 = 0.0998 | 0.2967
298.15 K, 101 kPa, x1 = 0.15 | 0.293
298.15 K, 101 kPa, x1 = 0.2074 | 0.3001
298.15 K, 101 kPa, x1 = 0.2504 | 0.298
298.15 K, 101 kPa, x1 = 0.2978 | 0.3052
298.15 K, 101 kPa, x1 = 0.3494 | 0.305
298.15 K, 101 kPa, x1 = 0.4046 | 0.3142
298.15 K, 101 kPa, x1 = 0.4477 | 0.314
298.15 K, 101 kPa, x1 = 0.4908 | 0.319
298.15 K, 101 kPa, x1 = 0.5034 | 0.3265
298.15 K, 101 kPa, x1 = 0.5489 | 0.326
298.15 K, 101 kPa, x1 = 0.614 | 0.3413
298.15 K, 101 kPa, x1 = 0.6485 | 0.342
298.15 K, 101 kPa, x1 = 0.6748 | 0.3496
298.15 K, 101 kPa, x1 = 0.7513 | 0.361
298.15 K, 101 kPa, x1 = 0.8018 | 0.3755
298.15 K, 101 kPa, x1 = 0.8507 | 0.384
298.15 K, 101 kPa, x1 = 0.9118 | 0.402
298.15 K, 101 kPa, x1 = 0.942 | 0.41
303.15 K, 101 kPa, x1 = 0.0998 | 0.283
303.15 K, 101 kPa, x1 = 0.2032 | 0.2874
303.15 K, 101 kPa, x1 = 0.2074 | 0.2861
303.15 K, 101 kPa, x1 = 0.2978 | 0.2901
303.15 K, 101 kPa, x1 = 0.4017 | 0.3009
303.15 K, 101 kPa, x1 = 0.4046 | 0.2991
303.15 K, 101 kPa, x1 = 0.5013 | 0.3117
303.15 K, 101 kPa, x1 = 0.5034 | 0.3092
303.15 K, 101 kPa, x1 = 0.599 | 0.3249
303.15 K, 101 kPa, x1 = 0.614 | 0.3231
303.15 K, 101 kPa, x1 = 0.6748 | 0.3317
303.15 K, 101 kPa, x1 = 0.8018 | 0.3565
303.15 K, 101 kPa, x1 = 0.8203 | 0.3611
303.15 K, 101 kPa, x1 = 0.9118 | 0.3812
303.15 K, 101.3 kPa, x1 = 0.106 | 0.2774
303.15 K, 101.3 kPa, x1 = 0.1995 | 0.2799
303.15 K, 101.3 kPa, x1 = 0.3097 | 0.2869
303.15 K, 101.3 kPa, x1 = 0.4073 | 0.2945
303.15 K, 101.3 kPa, x1 = 0.5055 | 0.3045
303.15 K, 101.3 kPa, x1 = 0.6094 | 0.3179
303.15 K, 101.3 kPa, x1 = 0.7062 | 0.3331
303.15 K, 101.3 kPa, x1 = 0.8061 | 0.3523
303.15 K, 101.3 kPa, x1 = 0.9036 | 0.3748
308.15 K, 101 kPa, x1 = 0.0436 | 0.272
308.15 K, 101 kPa, x1 = 0.15 | 0.274
308.15 K, 101 kPa, x1 = 0.2504 | 0.277
308.15 K, 101 kPa, x1 = 0.3494 | 0.282
308.15 K, 101 kPa, x1 = 0.4477 | 0.29
308.15 K, 101 kPa, x1 = 0.4908 | 0.294
308.15 K, 101 kPa, x1 = 0.5489 | 0.3
308.15 K, 101 kPa, x1 = 0.6485 | 0.313
308.15 K, 101 kPa, x1 = 0.7513 | 0.33
308.15 K, 101 kPa, x1 = 0.8507 | 0.349
308.15 K, 101 kPa, x1 = 0.942 | 0.371
313.15 K, 101 kPa, x1 = 0.0998 | 0.2582
313.15 K, 101 kPa, x1 = 0.2074 | 0.2604
313.15 K, 101 kPa, x1 = 0.2978 | 0.2643
313.15 K, 101 kPa, x1 = 0.4046 | 0.2723
313.15 K, 101 kPa, x1 = 0.5034 | 0.2806
313.15 K, 101 kPa, x1 = 0.614 | 0.2933
313.15 K, 101 kPa, x1 = 0.6748 | 0.3004
313.15 K, 101 kPa, x1 = 0.8018 | 0.3224
313.15 K, 101 kPa, x1 = 0.9118 | 0.3443

Clc1cccc(Cl)c1 + CCCCCC
viscosity [mPa·s], 100 kPa
Settings | 298.15 K | 308.15 K | 318.15 K
x1 = 0.0593 | 0.327 | 0.301 | 0.282
x1 = 0.1575 | 0.36 | 0.331 | 0.309
x1 = 0.255 | 0.4 | 0.368 | 0.338
x1 = 0.3473 | 0.446 | 0.407 | 0.37
x1 = 0.4204 | 0.487 | 0.442 | 0.4
x1 = 0.48 | 0.524 | 0.473 | 0.427
x1 = 0.5322 | 0.56 | 0.504 | 0.454
x1 = 0.5704 | 0.588 | 0.528 | 0.475
x1 = 0.6295 | 0.634 | 0.568 | 0.51
x1 = 0.6705 | 0.669 | 0.598 | 0.537
x1 = 0.7263 | 0.719 | 0.642 | 0.577
x1 = 0.8186 | 0.81 | 0.724 | 0.649
x1 = 0.9465 | 0.952 | 0.851 | 0.76

CCOC(C)=O + CCCCCCC
296 K, 101.3 kPa
Settings | viscosity [mPa·s]
x1 = 0.0713 | 0.391
x1 = 0.1748 | 0.385
x1 = 0.2448 | 0.382
x1 = 0.3468 | 0.382
x1 = 0.4832 | 0.383
x1 = 0.4946 | 0.381
x1 = 0.5009 | 0.382
x1 = 0.5867 | 0.387
x1 = 0.6508 | 0.392
x1 = 0.7653 | 0.403
x1 = 0.8485 | 0.413
x1 = 0.8885 | 0.42
